Laboratory results from patent publication US20220389008A1, “4-QUINOLINONE ANTIBACTERIAL COMPOUNDS” (Janssen Sciences Ireland Unlimited Company, priority 2019, published 2022).
“And” between values parts separate entries of the source, which are not always exact repeats. Identical values can stand only once. Like-named read-outs stand apart in the source and are kept apart here.

Legend:
[1] = system: rCaCh; experiment: CVS / cardio tox rCaCh; format: binding, rat
[2] = system: Mitochondrial toxicity (Glu/Gal); experiment: Mitochondrial toxicity (Glu/Gal) assay; format: cell-based; set-up: key to Score: “negative” means that in the test, it was found to have low mitotoxicity (and hence no mitotoxicity alerts); “positive” means that there were some mitotoxicity alerts; “inconclusive” means that no accurate conclusion could be drawn; details: for Score: mitotoxicity score; for Δ IC50,glu/IC50,gal: ratio glu/gal
Source text: The compounds of the invention/examples may have advantages associated with in vitro potency, kill kinetics (i.e. bactericidal effect) in vitro, PK properties, food effect, safety/toxicity (including liver toxicity, coagulation, 5-LO oxygenase), metabolic stability, Ames II negativity, MNT negativity, aqueous based solubility (and ability to formulate) and/or cardiovascular effect e.g. on animals (e.g. anesthetized guinea pig). The data below that was generated/calculated may be obtained using standard methods/assays, for instance that are available in the literature or which may be performed by a supplier (e.g. Microsomal Stability Assay—Cyprotex, Mitochondrial toxicity (Glu/Gal) assay—Cyprotex, as well as literature CYP cocktail inhibition assays).

[3] = system: Mycobacterium tuberculosis strain H37Rv ΔctaE-ΔqcrCAB; experiment: microbe, parasite or virus in culture; format: cell-based; details: 240 h
[4] = system: rNaCh; experiment: CVS / cardio tox rNaCh; format: binding, rat; details: read-out: Cardio tox rNaCH (IC50)
[5] = system: Mycobacterium tuberculosis (strain H37Ra), cyt bd; details: Mtb H37Ra; for (i) % OCR after cyt bd inhibitor: test compound 10 μM added after Compound X 0.9 μM; for (ii) % OCR after cccp: test compound 10 μM after Compound X 0.9 μM, then CCCP 1 μM
[6] = biological target: hERG (Homo sapiens, UniProt Q12809); experiment: CVS / cardio tox hERG (DOF); format: binding; details: DOF; read-out: Cardio tox hERG(DOF) (IC50)
hERG, sequence (Q12809 whole entry): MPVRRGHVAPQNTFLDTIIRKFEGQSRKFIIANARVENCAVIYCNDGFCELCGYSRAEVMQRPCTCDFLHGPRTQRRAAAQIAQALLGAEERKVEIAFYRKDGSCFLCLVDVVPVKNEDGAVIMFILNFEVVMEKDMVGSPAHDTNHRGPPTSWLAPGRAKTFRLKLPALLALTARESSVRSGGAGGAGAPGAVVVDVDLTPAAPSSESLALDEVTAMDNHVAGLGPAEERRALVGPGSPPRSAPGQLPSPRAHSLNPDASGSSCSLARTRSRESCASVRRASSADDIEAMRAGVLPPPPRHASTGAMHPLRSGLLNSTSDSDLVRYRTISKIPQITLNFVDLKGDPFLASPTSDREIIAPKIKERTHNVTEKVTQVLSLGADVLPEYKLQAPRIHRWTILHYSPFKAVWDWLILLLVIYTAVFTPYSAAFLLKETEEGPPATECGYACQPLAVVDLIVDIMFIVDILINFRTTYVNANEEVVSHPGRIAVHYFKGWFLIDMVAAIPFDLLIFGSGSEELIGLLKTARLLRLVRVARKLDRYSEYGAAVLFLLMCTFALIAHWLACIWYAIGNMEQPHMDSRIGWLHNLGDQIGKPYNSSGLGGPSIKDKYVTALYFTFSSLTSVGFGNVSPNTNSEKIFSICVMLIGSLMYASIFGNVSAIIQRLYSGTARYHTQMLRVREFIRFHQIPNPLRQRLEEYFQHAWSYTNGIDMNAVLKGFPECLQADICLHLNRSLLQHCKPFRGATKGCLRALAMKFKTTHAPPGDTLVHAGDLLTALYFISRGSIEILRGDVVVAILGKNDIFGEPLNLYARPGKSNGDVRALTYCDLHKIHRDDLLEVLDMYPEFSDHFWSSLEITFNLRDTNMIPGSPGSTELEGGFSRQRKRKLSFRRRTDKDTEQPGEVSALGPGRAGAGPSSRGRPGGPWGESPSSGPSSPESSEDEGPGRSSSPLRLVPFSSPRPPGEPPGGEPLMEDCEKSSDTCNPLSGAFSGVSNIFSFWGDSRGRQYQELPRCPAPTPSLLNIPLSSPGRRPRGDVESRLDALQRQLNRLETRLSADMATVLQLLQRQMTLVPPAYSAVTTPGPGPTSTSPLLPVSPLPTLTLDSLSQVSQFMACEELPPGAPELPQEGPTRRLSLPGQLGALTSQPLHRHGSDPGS

[7] = galactose medium, read-out: IC50, gal
[8] = glucose medium, read-out: IC50, glu

Row | Compound | Cardio tox rCaCh IC50 (µM) [1] | IC50 [2, 7] | IC50 [2, 8] | Score [2] | Δ IC50,glu/IC50,gal [2] | IC50 [3] [µM] | IC50 [4] [µM] | (i) % OCR after cyt bd inhibitor [5] [%] | (ii) % OCR after cccp [5] [%] | IC50 [6] [µM]
1 | Cc1c(-c2nc3ccc(-c4ccc(C(F)(F)F)cc4)cn3n2)[nH]c2ccccc2c1=O [Compound 4] | > 10 | 50 µM | 50 µM | negative | [x]0 | 1.25 | 2.3 | 32.75 | 40.05 | > 10
2 | Cc1c(-c2cc3ccc(-c4ccc(OC(F)(F)F)cc4)cn3n2)[nH]c2ccccc2c1=O [Compound 5] | >10, >10, >10 | 45.9 µM | 106 µM | inconclusive | [x]2.32 | 1.27 | > 10 | 43.48 | 49.26 | > 10
3 | Cc1c(-c2nc3ccc(-c4cccc(F)c4)cn3n2)[nH]c2ccccc2c1=O [Compound 12] | > 10 | 100 µM | 100 µM | negative | [x]0 | 0.885 | > 10 | 62.09 | 79.37 | > 3.02
4 | Cc1c(-c2nc3ccc(-c4nc(C(F)(F)F)cs4)cn3n2)[nH]c2ccccc2c1=O [Compound 18] | > 10 | 15.8 µM | 23.4 µM | negative | [x]1.48 | 1.88 | 1.51 | 76.01 | 98.7 | > 10
5 | Cc1c(-c2nc3ccc(C(F)(F)F)cn3n2)[nH]c2ccccc2c1=O [Compound 19] | >10, >10, >10 | 100 µM | 100 µM | negative | [x]0 | – | > 10 | 99.4 | 100.5 | > 10
6 | Cc1c(-c2cc3ccc(-c4ccc(OC(F)(F)F)cc4)cn3c2)[nH]c2ccccc2c1=O [Compound 22] | > 10 | 9.9 µM | 140 µM | positive | >13.3 | 3.75 | 6.9 | 82.7 | 109.8 | > 10
7 | Cc1c(-c2cc3cc(-c4ccc(OC(F)(F)F)cc4)ccn3c2)[nH]c2ccccc2c1=O [Compound 25] | >10, >10, >10 | 9.9 µM | 200 µM | positive | >20.2 | 3.09 | > 10 | 65.2 | 114.3 | > 10
8 | Cc1c(-c2nc3ccc(-c4ccc(OC(F)(F)F)nc4)cn3n2)[nH]c2ccccc2c1=O [Compound 26] | >10, >10, >10 | 9.59 µM | 13.3 µM | negative | [x]1.39 | 7.69 | > 10 | 71 | 116.7 | > 10
9 | Cc1c(-c2cn3ccc(Oc4ccc(OC(F)(F)F)cc4)cc3n2)[nH]c2ccccc2c1=O [Compound 29] | 3.3 | 53.7 µM | 79.7 µM | negative | 1.5 | – | 2.3 | 64.6 | 118.5 | ~9.1
10 | Cc1c(-c2nc3ccc(F)cn3n2)[nH]c2ccccc2c1=O [Compound 33] | >10, >10, >10 | 100 µM | 100 µM | negative | [x]0 | > 100 | > 10 | 61.2 | 123.6 | > 10
11 | Cc1c(-c2cn3cc(Oc4ccc(OC(F)(F)F)cc4)ccc3n2)[nH]c2ccccc2c1=O [Compound 44] | 3.8 | 58.5 µM | 47.8 µM | negative | 0.8 | 9.75 | 1.2 | 76 | 138.6 | 1.5
12 | Cc1c(-c2cn3ccc(Cc4ccc(OC(F)(F)F)cc4)cc3n2)[nH]c2ccccc2c1=O [Compound 52] | ~1.9 | 108 µM | 134 µM | negative | 1.2 | > 100 | 7.4 | 82.2 | 148.1 | > 10
13 | Cc1c(-c2nc3ccc(Br)cn3n2)[nH]c2ccccc2c1=O [Compound 55] | >10, >10, >10 | 200 µM and 100 µM | 200 µM and 100 µM | negative | [x]0;[x]0 | 36.1 | > 10 | 109.2 | 148.3 | > 10
14 | Cc1c(-c2nc3ccc(-c4cn(CC(F)(F)F)nn4)cn3n2)[nH]c2ccccc2c1=O [Compound 58] | >10, >10, >10 | 100 µM | 100 µM | negative | [x]0 | > 25 | > 10 | 139.74 | 153.33 | > 10
15 | Cc1c(-c2cn3cc(Cc4ccc(OC(F)(F)F)cc4)ccc3n2)[nH]c2ccccc2c1=O [Compound 63] | > 3.0 | 96.8 µM | 200 µM | inconclusive | >1.7 | 76.2 | 2.8 | 85.8 | 157.9 | > 10
16 | COc1cc2[nH]c(-c3nc4ccc(-c5ccc(OC(F)(F)F)cc5)cn4n3)c(C)c(=O)c2cc1OC [Compound 70] | >10, >10, >10 | 27.1 µM | 100 µM | inconclusive | [x]3.69 | > 50 | > 10 | 102.2 | 165.65 | > 10
